# System: immunoglobulins from the serum of metastatic prostate cancer patients
# Test: Biopanning of CX6C phage library on IgGs from serum of prostate cancer patients A, B, C
# Assay type: binding, human
# Conditions: patient C
# Description: Sera was selected from patients diagnosed with androgen-dependent and androgen-independent prostate cancer. A CX6C peptide library was screened against this pool of IgGs in a two-step procedure. First, the peptide library was pre-cleared against a pool of purified IgGs from normal serum samples using Protein G affinity chromatography. This step removed peptides from the phage display library that bound to immunoglobulins from patients without prostate cancer. Next, the pre-cleared peptide library was screened against the pool of purified IgGs from the serum of prostate cancer patients. This step selected peptides binding specifically to IgGs elicited against prostate cancer.
# A 6-mer cyclic peptide (CX6C) phage display library was used for the biopanning. To select peptides specific to the serum antibodies of cancer patients, a pre-clearing stage was employed to remove non-specific peptides by pre-absorbing the peptide library onto purified IgGs from pooled normal serum (five healthy male individuals). The pre-cleared peptide library was screened onto the purified IgGs from the serum of prostate cancer patients. In brief, 10^9 transducing units (T.U.) of a CX6C cyclic peptide phage library were incubated with IgG antibodies from 50 μl of normal serum immobilized on 50 μl of protein G (Gibco BRL) for 1 hour at 4° C. This was followed by affinity selection on the immobilized IgG antibodies from prostate cancer patient serum for 2 hours at 4° C. Phage peptides specifically bound to IgGs elicited against prostate cancer were eluted with 100 μl of 0.1 M glycine buffer, pH 2.2, neutralized by the addition of 10 μl 1M Tris pH 9.0, and used to infect E. coli strain K91. Ten-fold serial dilutions of the infected solution were spread onto agar plates containing 40 μg/ml of tetracycline and grown overnight. Two hundred colonies were picked, amplified, and precipitated for a subsequent round of panning. A total of three rounds were performed. Individual phage clones were picked for PCR and the insert DNA was sequenced.
Sequence,share of the clones in round II [%],share of the clones in round III [%]
CNITQKSC,33.3,0
CNKTDKGC,16.7,0
CNWTDKTC,33.3,7

# Same assay, conditions: second and third rounds; patient A, B or C that yielded the peptide
row,Sequence,share of the clones analyzed [%]
1,CHQKPWEC,100
2,CKDRFERC,100

# System: immunoglobulins from the serum of prostate cancer patient M
# Test: Biopanning on purified immunoglobulins from serum of prostate cancer patient M
# Assay type: binding, human
# Conditions: three rounds of panning; early stage
# Description: The methods used were similar to those described in Example 4. A subtraction protocol was used, in which IgG from a normal individual was coupled to protein G chromatography beads. A cyclic CX6C phage display library, prepared as described above, was exposed to the normal IgG's. […] Antibodies from patient M (prostate cancer patient) were attached to fresh protein G chromatograpy beads. […] This procedure was followed for three rounds of screening and targeting peptides against patient M's antibodies were obtained.
# Serum samples from the same patient were obtained from archival specimens and used to obtain targeting peptides. Patient M's serum from 1994 (early stage cancer), 1998 (intermediate stage) and 2000 (late stage) were used to obtain antibody targeting peptides as described above.
row,Sequence,"phage exhibiting the sequence / total clones, 1994 Serum"
1,CAVKSVTC,CAVKSVTC (1/22)
2,CIDMTHQC,CIDMTHQC (1/22)
3,CISSPSNC,CISSPSNC (1/22)
4,CLTSENAC,CLTSENAC (1/22)
5,CNGFMGYC,CNGFMGYC (1/22)
6,CNQSMWSC,CNQSMWSC (1/22)
7,CNSAFAGC,CNSAFAGC (1/22)
8,CQFENGTC,CQFENGTC (1/22)
9,CQNQYPEC,CQNQYPEC (1/22)
10,CRASAMVC,CRASAMVC (1/22)
11,CRDGYHHC,CRDGYHHC (1/22)
12,CSASDLSC,CSASDLSC (2/22)
13,CSTFAGSC,CSTFAGSC (1/22)
14,CSYTFAGC,CSYTFAGC (1/22)
15,CTFAGSSC,CTFAGSSC (6/22)

# Same assay, conditions: three rounds of panning; intermediate stage
row,Sequence,"phage exhibiting the sequence / total clones, 1998 Serum"
1,CFETFAGC,CFETFAGC (1/20)
2,CKNKHTTC,CKNKHTTC (1/20)
3,CNNMYAGC,CNNMYAGC (1/20)
4,CNSAFAGC,CNSAFAGC (1/20)
5,CQNQYPEC,CQNQYPEC (1/20)
6,CSKKFVTC,CSKKFVTC (3/20)
7,CTFAGSSC,CTFAGSSC (12/20)

# Same assay, conditions: three rounds of panning; late stage
row,Sequence,"phage exhibiting the sequence / total clones, 2000 Serum"
1,CFPKRVTC,CFPKRVTC (1/29)
2,CNSAFAGC,CNSAFAGC (1/29)
3,CPRSAKNC,CPRSAKNC (1/29)
4,CTFAGSSC,CTFAGSSC (26/29)

# System: DU145 xenografts
# Test: Biopanning of X2CX14CX2 phage library in tumor-bearing mice
# Assay type: in vivo, nude mice
# Conditions: third round, 76 translated clones
# Procedure: DU145 prostate tumor cells were injected subcutaneously into the right fat pad of nude mice. A large phage library (X2CX14CX2) was prepared as discussed above and 10^9 phage were injected into male tumor-bearing nude mice. After 24 hr circulation, tumors were removed and phage recovered from the tumors using the bulk method disclosed above. The recovered phage were amplified, titered and reinjected into a new set of tumor bearing nude mice. The biopanning protocol was repeated for a total of three rounds. Ninety-six phage clones recovered from the third round of biopanning were selected for sequencing. Translated sequences were obtained for 76 of the 96 clones.
row,Sequence,number of times the sequence was obtained
1,ARCREDTGFMGLGSANICTD,ARCREDTGFMGLGSANICTD (1)
2,DACSRFLGERVDATAAGCSR,DACSRFLGERVDATAAGCSR (2)
3,DRCVLVRPEFGRGDARLCHS,DRCVLVRPEFGRGDARLCHS (2)
4,EGCSDIMNTAAERVTGDCSY,EGCSDIMNTAAERVTGDCSY (2)
5,GDCETNNVTKVGGITRNCVG,GDCETNNVTKVGGITRNCVG (1)
6,GNCMGLQVSELFMGPYKCRQ,GNCMGLQVSELFMGPYKCRQ (2)
7,GPCAATGVNPGDHGAAVCDQ,GPCAATGVNPGDHGAAVCDQ (1)
8,GTCPRQFFHMQEFWPSDCSR,GTCPRQFFHMQEFWPSDCSR (3)
9,GYCLTVVGGAVLTLALLCVT,GYCLTVVGGAVLTLALLCVT (1)
10,HTCWGARDVAQPSGTVRCLK,HTCWGARDVAQPSGTVRCLK (1)
11,IGCNHPSPLGSTVVPTYCFK,IGCNHPSPLGSTVVPTYCFK (3)
12,KICPVTNMWTTPSWAHKCGM,KICPVTNMWTTPSWAHKCGM (1)
13,KLCYRSSAGSELRPPEKCAY,KLCYRSSAGSELRPPEKCAY (1)
14,KSCGKYGLIVGQPFAEHCPP,KSCGKYGLIVGQPFAEHCPP (1)
15,LGCNKGRYWLSTRLSVSCAL,LGCNKGRYWLSTRLSVSCAL (1)
16,LRCPLEVDRPNRDPAFLCSQ,LRCPLEVDRPNRDPAFLCSQ (1)
17,MHCTSQTLRGTPSLAPKCSD,MHCTSQTLRGTPSLAPKCSD (1)
18,NDCSAHAQPGWDEVPPMCNQ,NDCSAHAQPGWDEVPPMCNQ (1)
19,NNCPVEGSQQNYSGATWCRA,NNCPVEGSQQNYSGATWCRA (1)
20,NQCSSLLTYQGWKRTKDCIP,NQCSSLLTYQGWKRTKDCIP (1)
21,NRCMPGFLDDADSAASPCGS,NRCMPGFLDDADSAASPCGS (1)
22,PGCVVSPFALSAQGTSVCTI,PGCVVSPFALSAQGTSVCTI (1)

row,Sequence,number of times the sequence was obtained
1,PNCDLDDIVLNPYTAGPCGT,PNCDLDDIVLNPYTAGPCGT (1)
2,PNCYSGDGEISSHIPVQCLM,PNCYSGDGEISSHIPVQCLM (1)
3,QHCVKGQFPFRESVTITCNS,QHCVKGQFPFRESVTITCNS (1)
4,RECGRTVHRYPWGSPESCER,RECGRTVHRYPWGSPESCER (2)
5,RGCTEAAGLVIGITTHQCGN,RGCTEAAGLVIGITTHQCGN (3)
6,RGCWRDSTAWHVSYPVECLA,RGCWRDSTAWHVSYPVECLA (1)
7,RSCVNSDTGVLQRGAPSCLF,RSCVNSDTGVLQRGAPSCLF (1)
8,RTCEEVRNRALEELTNFCPY,RTCEEVRNRALEELTNFCPY (1)
9,RTCQVRSNNISPRMALACVT,RTCQVRSNNISPRMALACVT (1)
10,SRCHALRSQSVSTSAGACIS,SRCHALRSQSVSTSAGACIS (1)
11,TECRGASSGSVSGAATDCRD,TECRGASSGSVSGAATDCRD (1)
12,TLCPPASMGLGREKPRLCSV,TLCPPASMGLGREKPRLCSV (1)
13,TLCRSLEHEVGLFKPRECPF,TLCRSLEHEVGLFKPRECPF (1)
14,TSCVRTGHDENLLKAAYCSS,TSCVRTGHDENLLKAAYCSS (1)
15,TTCNKSMSSQPMRDSRECHR,TTCNKSMSSQPMRDSRECHR (1)
16,VACDISAVERLPASARSCKT,VACDISAVERLPASARSCKT (1)
17,VECVMASASTDGTAAHPCKP,VECVMASASTDGTAAHPCKP (1)
18,VFCCGSYCGGVEMLASRCGH,VFCCGSYCGGVEMLASRCGH (2)
19,VRCNEAQLQDSGTVPHPCLR,VRCNEAQLQDSGTVPHPCLR (1)
20,VVCFMERQMGTDVVSPMCVN,VVCFMERQMGTDVVSPMCVN (1)
21,WVCTSASQDTRLKEPGMCIA,WVCTSASQDTRLKEPGMCIA (1)
22,YSCTRLNGTGLQNPPSACDR,YSCTRLNGTGLQNPPSACDR (1)

# System: DU145 xenografts
# Test: Phage localization by anti-phage staining of tissues
# Assay type: in vivo, nude mice
# Conditions: 24 hour circulation
# Procedure: To determine the specificity of the prostate tumor targeting peptides, 10^9 phage carrying the targeting peptide sequences […] (SEQ ID NO:83) and […] (SEQ ID NO:84) were injected into nude mice bearing DU145 xenografts. After 24 hour circulation, tissue samples were obtained from tumor and control organs (kidney, brain, lung and spleen). Tissue samples were washed immediately in DMAM and fixed in 10% formalin for 48 hours at room temperature. Thin sections were stained for phage using anti-phage antibody (1:500 dilution) and detected using the DAKO LSAB+ system. […] This may be due to the tendency of spleen tissue to trap phage and other foreign particles in general as part of the reticuloendothelial system.
Sequence,"anti-phage staining of control kidney, brain or lung",anti-phage staining of normal spleen,anti-phage staining of tumor
LGCMASMLREFEGATHACTQ,No staining was observed,low level of anti-phage staining,very heavy staining
